What all share (format): cell-based, human
The subject of assay [1] is AMD1. In words: Western blot of AMD1 in LNCaP cells treated with BENSpm. The conditions noted are these: BENSpm for 96 hours. On the procedure:
(§1) FIG. 11 depicts a Western blot showing AMD1, ODC1, SAT1 and B-actin protein expression in wild type LNCaP cells pretreated with +/−DHT for 24 hours followed by BENSpm for 96 hours.
(§2) We next analyzed whether the metabolic stress in CaP cells caused by high biosynthetic flux to maintain polyamine pools can be enhanced by increasing the activity of SAT1. We tested whether this could cause increased secretion of acetylated polyamines, putting intracellular pools in deficit, which should necessitate more biosynthesis, and should therefore potentiate any benefit of inhibiting the MSP. To conduct this analysis we used LNCaP cells that stably overexpress SAT1 in a Tet-off system (LNG53 cells, described in Kee, K., et al. J Biol Chem 279, 27050-27058 (2004)).
On the technique in general: In western blotting, separated proteins are transferred to a membrane and probed.

The subject of assay [2] is SAT1. In words: SAT1 mRNA and protein expression in LNCaP cells treated with BENSpm. The conditions noted are these: BENSpm 0.1 to 10 μM. As for the experimental part:
as §1, §2

Assay [3] deals with ODC1. In words: Western blot of ODC1 in LNCaP cells treated with BENSpm. The conditions noted are these: BENSpm for 96 hours. As for the experimental part:
as §1, §2

Assay [4] relates to DU145. In words: Proliferation of DU145, BENSpm 24 h pre-treatment then 96 hr MTDIA. The conditions noted are these: AR negative DU145, 2.5 μM BENSpm. On the procedure:
(§3) Tet was removed 24 hours prior to 96 hr treatment with MTDIA. […] Cells were pre-treated with BENSpm for 24 hours followed by 96 hr treatment with MTDIA.
as §2

For assay [5], the system named is SAT1. In words: SAT1 activity in response to BENSpm treatment.
Excerpt: as §2

Assay [6] deals with LNCaP. In words: Proliferation of wild type LNCaP, BENSpm 24 h pre-treatment then 96 hr MTDIA. On the procedure: as §3, §2
Assay [7] has as its system MTAP. In words: Western blot of MTAP protein expression in DU145. The conditions noted are these: DU145, 10 and 20 uM MTA for 4 days. As for the experimental part:
(§4) FIG. 9. (A) Proliferation curves for LNCaP, DU145 and PC3 treated with MTDIA in the absence or presence of 10 or 20 uM MTA, for 4 and (B) 8 days. […] (C) Western blot analysis of FaDu, LNCaP, and DU145 cells after indicated treatments of MTA (0, 10, or 20 uM) or the respective 4 day IC25 and IC50 dose of MTDIA for each cell line plus or minus MTA immunoblotted with antibodies against MTAP, SMS, and SRM, with B-actin as a loading control. Western blot images are representative of biological triplicates.
(§5) Western Blotting—Whole cell extracts were prepared in RIPA buffer (150 mM NaCl, 1.0% NP-40, 0.5% deoxycholate, 0.1% SDS, 50 mM Tris-HCl pH 8.0, 5 mM EDTA and 0.5 mM PMSF) supplemented with 1× proteinase inhibitor. Protein concentrations were determined by Bradford Assay (Thermo Scientific, Cat #1856209). […] MTAP for Westerns was purchased from Proteintech™ (Cat #11475-1-AP. SRM and SMS were purchased from Abcam® (Cat #ab111884 and ab156879). B-actin antibody for Westerns was purchased from Sigma-Aldrich (Cat #A5441) and GAPDH was from Santa Cruz Biotecnology Inc. (Cat #sc-25778). Films were scanned using the Biorad ChemiDoc XRS, and band intensities were calculated using Image Lab™. Intensity values were normalized to B-actin loading control band intensities and made relative to control treatment conditions.

The subject of assay [8] is MTAP. In words: Western blot of MTAP protein expression in FaDu. The conditions noted are these: 10 and 20 uM MTA for 4 days. As for the experimental part:
as §4, §5

For assay [9], the system named is MTAP. In words: Western blot of MTAP protein expression in LNCaP. The conditions noted are these: MTA treatment. As for the experimental part: as §4, §5

The structures appear in SMILES notation. “Also recorded” adds a separate entry of the source.

With `CCNCCCNCCCNCCCNCC` [BENSpm, N(1),N(11)-bisethylnorspermine], the “effect on AMD1” value in assay [1] was “minimal effects”. Moreover, the “SAT1 mRNA” value in assay [2] is “increased”. In addition, the SAT1 protein result in assay [2] is listed as “increased”. Moreover, in assay [3], the “effect on ODC1” value was “minimal effects”. Besides, the “sensitivity to MTDIA” value in assay [4] was “more sensitive to MTDIA; also recorded: strongly increased sensitivity to MTDIA”; in [6] (2.5 μM BENSpm), “more sensitive to MTDIA; also recorded: greatly increased sensitivity to MTDIA”. In addition, the “SAT1 activity, dose dependent increase” value is recorded as 17-40 fold in assay [5] ((+) dihydrotestosterone (DHT) conditions) and 6-20 fold in [5] ((−) DHT conditions). Moreover, the effect on proliferation result in assay [6] (2.5 μM BENSpm alone) is “no effect on proliferation”.

Turning to `CSC[C@H]1O[C@@H](n2cnc3c(N)ncnc32)[C@H](O)[C@@H]1O` [MTA], the MTAP protein expression result was “slightly increased” in assay [7] and “slightly decreased” in assay [8]. In assay [9], the MTAP levels entry was “unchanged”.

The values are drawn from patent US11045473B2, “Compositions and methods for therapy of prostate cancer using drug combinations to target polyamine biosynthesis and related pathways” (Health Research, Inc., priority 2015, dated 2021).
